In patent publication US20210123061A1, “METHODS AND COMPOSITIONS FOR TREATING INFLAMMATORY DISEASE OR DISORDER” (THE BRIGHAM AND WOMEN'S HOSPITAL, INC., priority 2018, published 2021):

Legend:
[1] = test system: STAT1 phosphorylation (Ser727, Tyr701); test: Immunoblot of STAT1 phosphorylation in IFN-γ-stimulated PBMC-derived macrophages; assay type: cell-based, human; details: 10 μM pre-treatment, IFN-γ, cell lysates
Protocol: (§1) FIGS. 3A-3F show RSK1 is activated through JAK signaling and its inhibition suppresses STAT1 phosphorylation at Ser727 in human primary macrophages in response to IFN-γ. (FIG. 3A) PBMC-derived macrophages were pre-treated with DMSO or 10 μM a pan-JAK inhibitor, pyridone-6, for two hours and then stimulated with IFN-γ for indicated time under serum starvation. Cell lysates were subjected to immunoprecipitation with normal IgG or anti-RSK1 followed by immunoblot analysis using the indicated antibodies. WCL, whole cell lysate. N=3 donors. (FIG. 3B) Immunoblots of cell lysates from macrophages that were transfected with control siRNA or RSK1 siRNA followed by stimulation with IFN-γ for indicated time under serum starvation. N=2 donors. (FIG. 3C) Immunoblots of cell lysates from macrophages that were pre-treated with DMSO or BI-D1870 for two hours and subsequently left unstimulated or stimulated with IFN-γ for 1 hour under serum starvation. (FIG. 3D) Densitometric based quantification (ImageJ Software) of STAT1-pSer727 in panel (FIG. 3C) plus three additional donors. The phosphorylation levels in cells pretreated with DMSO and stimulated were defined as 1.0. Data are means±SE. N=6 donors. **P<0.01 indicate significance for phosphorylation levels compared to control (treatment with DMSO and IFN-γ) by Dunnett's comparison test. (FIG. 3E) Macrophages were treated with DMSO or BI-d1870 for two hours followed by IFN-γ stimulation under serum starvation. Cell lysates were subjected to immunoprecipitation with normal IgG or anti-STAT1-pSer727 followed by SYPRO ruby stain or immunoblot analysis with the indicated antibodies. Immunoprecipitants in the gel (red square) were in-gel digested for parallel reaction monitoring (PRM) mass spectrometry. (FIG. 3F) Quantification of PRM ions (MS/MS ions) of the indicated STAT1 peptide harboring a phosphorylation at Ser727 (and oxidized methionine, m), generated from the digest of panel (FIG. 3F).
Cell culture of human PBMC-derived primary macrophages. […]

phospho-RSK1-Ser380 = test: Anti-RSK1 immunoprecipitation and immunoblot in IFN-γ-stimulated PBMC-derived macrophages; assay type: cell-based, human; details: 10 μM pre-treatment two hours, IFN-γ up to 90 minutes, serum starvation
Protocol: as §1, with “N=6 donors. **P<0.01 indicate significance for phosphorylation levels compared to control (treatment with DMSO and IFN-γ) by Dunnett's comparison test. (FIG. 3E) Macrophages were treated with DMSO or BI-d1870 for two hours followed by IFN-γ stimulation under serum starvation. Cell lysates were subjected to immunoprecipitation with normal IgG or anti-STAT1-pSer727 followed by SYPRO ruby stain or immunoblot analysis with the indicated antibodies. Immunoprecipitants in the gel (red square) were in-gel digested for parallel reaction monitoring (PRM) mass spectrometry.” left out, “3F). […]” for “3F).”

## CC(C)(C)c1nc2c3cc[nH]c(=O)c3c3cc(F)ccc3c2[nH]1 [Pyridone-6]
[1]
  phospho-STAT-Ser727 signal: similar
phospho-RSK1-Ser380
  phospho-RSK1-Ser380 signal: marked suppression
